Measured values reported in US9951372B2, “Compounds and methods for assaying redox state of metabolically active cells and methods for measuring NAD(P)/NAD(P)H” (PROMEGA CORPORATION, priority 2011, dated 2018).
Read-outs that look alike come from different tables or passages of the source.

Assays:
rat diaphorase [1] = assay type: biochemical; conditions: 20 μM compound
rat diaphorase [2] = assay type: biochemical
Clostridium diaphorase [3] = assay type: biochemical
rat diaphorase [4] = assay type: biochemical; conditions: 20 μM compound, 40 min
rat diaphorase [5] = assay type: biochemical; conditions: 20 μM compound, 10 μM NADH
rat diaphorase [6] = assay type: biochemical; remark: listed apart in the source
rat diaphorase [7] = biological target: T1, rat diaphorase (Rattus norvegicus, UniProt P05982); assay type: biochemical; conditions: for FLUs: 1 u/ml rat diaphorase; for Fluorescence time course, Rat: 10 uM NADH
T1 construct: purchased Sigma
T1 sequence (P05982 2-274 limits assumed): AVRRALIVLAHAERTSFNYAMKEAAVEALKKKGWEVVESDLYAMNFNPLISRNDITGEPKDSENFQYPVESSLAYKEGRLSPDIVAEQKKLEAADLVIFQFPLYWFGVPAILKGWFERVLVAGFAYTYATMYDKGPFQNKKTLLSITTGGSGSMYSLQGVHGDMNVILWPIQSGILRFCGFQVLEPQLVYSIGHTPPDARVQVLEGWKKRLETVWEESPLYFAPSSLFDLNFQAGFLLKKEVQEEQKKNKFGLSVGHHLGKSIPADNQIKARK

Clostridium diaphorase [8] = test: Fluorescent NADH detection assay, Clostridium diaphorase; assay type: biochemical; conditions: for FLUs: 1 u/ml Clostridium diaphorase; for Fluorescence time course, Clostridium: 10 uM NADH
Method: Each fluorescent substrate (PBI-4412, 4413, 4440, and 4441) was incubated at 920 μM with 0 μM or 10 μM NADH (Sigma) or a titration of NADH (Table 8) and 1 u/ml rat diaphorase (Sigma) or 1 u/ml Clostridium diaphorase (Sigma) in a volume of 100 μl in 50 mM Tris pH 7.5. Single reactions were prepared in the wells of a 96-well black plate at room temperature. Fluorescence was monitored over the course of two hours at excitation and emission wavelengths of 485 and 527, respectively, using a fluorescence plate reader. […] Table 7 and FIGS. 24a-b show the reaction time course with each substrate with 10 uM NADH. Table 8 and FIG. 25 show the NADH titration at 60 minutes with PBI-4440 and 4412 with rat diaphorase.

HeLa cells = test: Fluorescent imaging of live cells; assay type: cell-based; conditions: 10 μM substrate
Method: HeLa cells were plated at 40,000 cell/well into wells of an 8-well chambered coverslip and incubated at 37° C.+5% CO2. The media (DMEM) was replaced with warm complete media (with 10% FBS) containing 10 μM PBI-4412, 4413, 4440 or 4441. Cells were then transferred to a confocal microscope for imaging using 10% λ488 nm laser power (4412, 4413, and 4441) or 5% laser power (4440). All images (FIGS. 6a-d) are at 30× magnification.

[9] = 10 μM NADH, 60 min, substrate 920 μM

## CC1=C(C)C(=O)C(C(C)(C)CC(=O)N(C)CCN(C)C(=O)Oc2ccc3nc(C4=N[C@@H](C(=O)O)CS4)sc3c2)=C(C)C1=O [PBI 4312, quinone trimethyllock-C2-diamine luciferin]
Rat diaphorase [1]; NADH no, diaphorase no
  Avg RLU: 4262 RLU
Rat diaphorase [1]; NADH no, diaphorase yes (5 u/ml rat)
  Avg RLU: 3910 RLU
Rat diaphorase [1]; NADH yes (10 μM), diaphorase no
  Avg RLU: 3918 RLU
Rat diaphorase [1]; NADH yes (10 μM), diaphorase yes (5 u/ml rat), 20 min
  Avg RLU: 197017 RLU
Rat diaphorase [2]; 20 μM compound, 10 μM NADH, 5 u/ml rat diaphorase, 70 min
  Avg RLU With NADH: 120633 RLU
Rat diaphorase [2]; 20 μM compound, no NADH, 5 u/ml rat diaphorase, 70 min
  Avg RLU Without NADH: 4981 RLU
Rat diaphorase [2]; signal with NADH / without NADH, rat diaphorase
  S/B: 24
Clostridium diaphorase [3]; 20 μM compound, 10 μM NADH, 0.5 u/ml Clostridium diaphorase, 70 min
  Avg RLU With NADH: 29068 RLU
Clostridium diaphorase [3]; 20 μM compound, no NADH, 0.5 u/ml Clostridium diaphorase, 70 min
  Avg RLU Without NADH: 5311 RLU
Clostridium diaphorase [3]; signal with NADH / without NADH, Clostridium diaphorase
  S/B: 5.5
Rat diaphorase [4]; NADH 0 μM
  Avg RLU: 5410 RLU
Rat diaphorase [4]; NADH 0.006 μM
  Avg RLU: 6447 RLU
Rat diaphorase [4]; NADH 0.012 μM
  Avg RLU: 7075 RLU
Rat diaphorase [4]; NADH 0.024 μM
  Avg RLU: 8864 RLU
Rat diaphorase [4]; NADH 0.049 μM
  Avg RLU: 11190 RLU
Rat diaphorase [4]; NADH 0.098 μM
  Avg RLU: 20126 RLU
Rat diaphorase [4]; NADH 0.195 μM
  Avg RLU: 27871 RLU
Rat diaphorase [4]; NADH 0.39 μM
  Avg RLU: 43659 RLU
Rat diaphorase [4]; NADH 0.78 μM
  Avg RLU: 33801 RLU
Rat diaphorase [4]; NADH 1.56 μM
  Avg RLU: 60043 RLU
Rat diaphorase [4]; NADH 3.125 μM
  Avg RLU: 119311 RLU
Rat diaphorase [4]; NADH 6.25 μM
  Avg RLU: 235674 RLU
Rat diaphorase [4]; NADH 12.5 μM
  Avg RLU: 465875 RLU
Rat diaphorase [4]; NADH 25 μM
  Avg RLU: 608014 RLU
Rat diaphorase [4]; NADH 50 μM
  Avg RLU: 687602 RLU
Rat diaphorase [4]; NADH 100 μM
  Avg RLU: 663944 RLU
Rat diaphorase [5]; ~1 min after LDR with 500 μM menadione
  First Reading With menadione: 3527 RLU
Rat diaphorase [5]; ~1 min after LDR
  First Reading Without menadione: 5900 RLU
Rat diaphorase [5]; ~6 min after LDR with 500 μM menadione
  Last Reading With menadione: 5062 RLU
Rat diaphorase [5]; ~6 min after LDR
  Last Reading Without menadione: 39855 RLU
Rat diaphorase [6]; reaction time 0 min, 20 μM compound, 10 μM NADH
  Avg RLU: 7809 RLU
Rat diaphorase [6]; reaction time 2 min
  Avg RLU: 150745 RLU
Rat diaphorase [6]; reaction time 5 min
  Avg RLU: 206822 RLU
Rat diaphorase [6]; reaction time 10 min
  Avg RLU: 305968 RLU
Rat diaphorase [6]; reaction time 15 min
  Avg RLU: 366592 RLU
Rat diaphorase [6]; reaction time 25 min
  Avg RLU: 499283 RLU
Rat diaphorase [6]; reaction time 30 min
  Avg RLU: 529063 RLU
Rat diaphorase [6]; reaction time 40 min
  Avg RLU: 544475 RLU
Rat diaphorase [6]; reaction time 50 min
  Avg RLU: 599165 RLU
Rat diaphorase [6]; reaction time 60 min
  Avg RLU: 571954 RLU

## CC1=CC(=O)C(C)=C(C(C)(C)CC(=O)N(C)CCN(C)C(=O)Oc2ccc3c(c2)Oc2cc(OC(=O)N(C)CCN(C)C(=O)CC(C)(C)C4=C(C)C(=O)C=C(C)C4=O)ccc2C32OC(=O)c3ccccc32)C1=O [PBI 4413, Bis-quinone trimethyllock diamine fluorescein]
Rat diaphorase [7]; 0 μM NADH, 60 min
  FLUs: 39 FLUs
Rat diaphorase [7]; [9]
  FLUs: 7397 FLUs
Rat diaphorase [7]; 2 min
  Fluorescence time course, Rat: 180 FLUs
Rat diaphorase [7]; 4 min
  Fluorescence time course, Rat: 419 FLUs
Rat diaphorase [7]; 5 min
  Fluorescence time course, Rat: 545 FLUs
Rat diaphorase [7]; 10 min
  Fluorescence time course, Rat: 1091 FLUs
Rat diaphorase [7]; 20 min
  Fluorescence time course, Rat: 2151 FLUs
Rat diaphorase [7]; 30 min
  Fluorescence time course, Rat: 3407 FLUs
Rat diaphorase [7]; 40 min
  Fluorescence time course, Rat: 4669 FLUs
Rat diaphorase [7]; 50 min
  Fluorescence time course, Rat: 6127 FLUs
Rat diaphorase [7]; 60 min
  Fluorescence time course, Rat: 7397 FLUs
Rat diaphorase [7]; 70 min
  Fluorescence time course, Rat: 9925 FLUs
Rat diaphorase [7]; 80 min
  Fluorescence time course, Rat: 10959 FLUs
Rat diaphorase [7]; 90 min
  Fluorescence time course, Rat: 12101 FLUs
Rat diaphorase [7]; 100 min
  Fluorescence time course, Rat: 13732 FLUs
Rat diaphorase [7]; 110 min
  Fluorescence time course, Rat: 15434 FLUs
Rat diaphorase [7]; 120 min
  Fluorescence time course, Rat: 16666 FLUs
Clostridium diaphorase [8]; 0 μM NADH, 60 min
  FLUs: 255 FLUs
Clostridium diaphorase [8]; [9]
  FLUs: 2517 FLUs
Clostridium diaphorase [8]; 2 min
  Fluorescence time course, Clostridium: 264 FLUs
Clostridium diaphorase [8]; 4 min
  Fluorescence time course, Clostridium: 457 FLUs
Clostridium diaphorase [8]; 5 min
  Fluorescence time course, Clostridium: 698 FLUs
Clostridium diaphorase [8]; 10 min
  Fluorescence time course, Clostridium: 1195 FLUs
Clostridium diaphorase [8]; 20 min
  Fluorescence time course, Clostridium: 2167 FLUs
Clostridium diaphorase [8]; 30 min
  Fluorescence time course, Clostridium: 2896 FLUs
Clostridium diaphorase [8]; 40 min
  Fluorescence time course, Clostridium: 3329 FLUs
Clostridium diaphorase [8]; 50 min
  Fluorescence time course, Clostridium: 3519 FLUs
Clostridium diaphorase [8]; 60 min
  Fluorescence time course, Clostridium: 3664 FLUs
Clostridium diaphorase [8]; 70 min
  Fluorescence time course, Clostridium: 3803 FLUs
Clostridium diaphorase [8]; 80 min
  Fluorescence time course, Clostridium: 3841 FLUs
Clostridium diaphorase [8]; 90 min
  Fluorescence time course, Clostridium: 3798 FLUs
Clostridium diaphorase [8]; 100 min
  Fluorescence time course, Clostridium: 3801 FLUs
Clostridium diaphorase [8]; 110 min
  Fluorescence time course, Clostridium: 3820 FLUs
Clostridium diaphorase [8]; 120 min
  Fluorescence time course, Clostridium: 3821 FLUs
HeLa cells
  reduction of substrate in live cells (confocal images): only reduced once inside cells
